The subject of this series is Subjects with Refractory Solid Tumors. Briefly: Phase I clinical trial, open-label, dose-escalating, multiple-dose, weekly intravenous administration. The series is classed as in vivo, human. On the procedure: An open-label, dose-escalating, multiple-dose study to define the safety, tolerability and phamacokinetics of weekly intravenous administration of (4-Methoxy-phenyl)-methyl-(2-methyl-quinazolin-4-yl)-amine hydrochloride was performed. A dosing schedule (each 4 week cycle) was performed for (4-Methoxy-phenyl)-methyl-(2-methyl-quinazolin-4-yl)-amine hydrochloride weekly for 3 weeks with no infusion on the fourth week of each cycle. Subjects with refractory solid tumors were enrolled. During Cycle 1, subjects were hospitalized during each infusion of (4-Methoxy-phenyl)-methyl-(2-methyl-quinazolin-4-yl)-amine hydrochloride and remained for observation and safety evaluation for approximately 24 hours following the end of the infusion. All subject had continuous telemetry for 2 hours prior to infusion, for 1-2 hour infusion and for 3 hours after the end of the infusion. Any clinically significant electrocardiographic (ECG) wave form abnormality was recorded and prolongation of the monitoring period extended at the discretion of the principal investigator.
Electrocardiograms were obtrained prior to starting the infusion and within 30 minutes of the end of infusion for each infusino of the first cycle. Electrocardiograms on Day 1 were obtained in triplicate 5 minutes apart.
Neurocognitive assessments were made by administration of the Mini-Mental State Examination (MMSE), the Hopkins Verbal Learning and timed Grooved Pegboard tests before administration of the intravenous infusion and approximately 24 hours after the infusion at each weekly administration of the first cycle.
On days 1, 8, and 15 of each cycle, vital signs were obtained prior to the first dose, at 15, 30, and 60 minutes after the initiation of the infusion, and at 0.5, 1, 1.5, 2, and 4 hours after the end of the intravenous infusion. Vital signs at all time points beyond the start of the intravenous infusion included heart rate, blood pressure and respirations. Temperature was measured at the end of the infusion and 4 hours later.
Individual subjects were allowed to continue on repeated weekly ×3 administrations every 28 days with no dose increase provided there was no unacceptable toxicity or disease progression.
Tumor response was evaluated by response evaluation criteria in solid tumors
(RECIST) criteria. To prevent sever hypersensitivity reactions due to Cremophor® EL, subjects were premedicated with oral dexamethasone (20 mg) administered approximately 12 and 6 hours before the intravenous infusion with (4-Methoxy-phenyl)-methyl-(2-methyl-quinazolin-4-yl)-amine hydrochloride, diphenhydramine (50 mg) or its equivalent administered intravenously 30-60 minutes before (4-Methoxy-phenyl)-methyl-(2-methyl-quinazolin-4-yl)-amine hydrochloride, and cimetidine (300 mg) or ranitidine (50 mg) administered intravenously 30-60 minutes before (4-Methoxy-phenyl)-methyl-(2-methyl-quinazolin-4-yl)-amine hydrochloride.

Where [1] appears, read: at the administered doses (0.3-4.5 mg/m^2), weekly i.v.

Molecules are shown by their SMILES. Where a name gives a salt, the structure may show the parent alone.

`COc1ccc(N(C)c2nc(C)nc3ccccc23)cc1` [(4-Methoxy-phenyl)-methyl-(2-methyl-quinazolin-4-yl)-amine hydrochloride]: under setting [1], the cytotoxicity peripherally entry is “no evidence from the results of the clinical trials of cytotoxicity peripherally” and the “effect on laboratory parameters (neutrophils, platelets, hemoglobin)” value is listed as “no apparent effect”. Under “human subjects at selected dosages, summary of Phase 1 studies”, the safety and tolerability result was “safe and well tolerated”. Also, for the setting “one patient in Cohort 10 (3.3 mg/m^2) with NSCLC that had metastasized to the CNS, weekly i.v. for 3 weeks of each 4 week cycle”, the “disease progression (tumor response by RECIST criteria)” value was “not shown to have disease progression”. The dose limiting toxicity entry (particularly in Cohorts 8 and 9 (3.9 and 4.5 mg/m^2)) is given as “vascular in nature, manifested by an acute coronary syndrome”. Where the note is “weekly i.v., human subjects”, the intratumor bleeding entry is reported as “incidences of intratumor bleeding”. For the same molecule, the “optimal dosage derived from the trials” value (weekly i.v., hydrochloride salt basis) is reported as at most 3.3 mg/m^2. In addition, the safety and tolerability entry (within dosage range 3.3 mg/m^2 or lower) is “safe and tolerated”.

Values taken from patent US20100261739A1, “Method of Treating Non-Small Cell Lung Cancer” (Myriad Pharmaceuticals, Inc., priority 2007, published 2010).
